Assay results: patent US9113629B2, “4-amino-6-(4-substituted-phenyl)-picolinates and 6-amino-2-(4-substituted-phenyl)-pyrimidine-4-carboxylates and their use as herbicides” (DOW AGROSCIENCES LLC, priority 2013, dated 2015)
Like-named read-outs stand apart in the source and are kept apart here.

Assays:
[1] = tested on: Key Grass and Sedge Weeds as well as Grass Crops; assay: Post-emergent Test II herbicidal activity (Table 6); assay type: in vivo; conditions: post-emergence, 336 h; for pest or weed control at 70 g/ha: application rate 70 g ai/ha; for pest or weed control at 140 g/ha: application rate 140 g ai/ha
Method: (§1) Post-emergent Test II: Seeds or nutlets of the desired test plant species were planted in Sun Gro Metro-Mix® 360 planting mixture, which typically has a pH of 6.0 to 6.8 and an organic matter content of about 30 percent, in plastic pots with a surface area of 64 square centimeters. When required to ensure good germination and healthy plants, a fungicide treatment and/or other chemical or physical treatment was applied. The plants were grown for 7-21 d in a greenhouse with an approximate 15 h photoperiod which was maintained at about 23-29° C. during the day and 22-28° C. during the night. Nutrients and water were added on a regular basis and supplemental lighting was provided with overhead metal halide 1000-Watt lamps as necessary. The plants were employed for testing when they reached the first or second true leaf stage.
(§2) A weighed amount, determined by the highest rate to be tested, of each test compound was placed in a 25 mL glass vial and was dissolved in 4 mL of a 97:3 v/v mixture of acetone and DMSO to obtain concentrated stock solutions. […] The concentrated stock solutions obtained were diluted with 20 mL of an aqueous mixture containing acetone, water, isopropyl alcohol, DMSO. Atplus 411F crop oil concentrate, and Triton® X-155 surfactant in a 48.5:39:10:1.5:1.0:0.02 v/v ratio to obtain spray solutions containing the highest application rates. Additional application rates were obtained by serial dilution of 12 mL of the high rate solution into a solution containing 2 mL of 97:3 v/v mixture of acetone and DMSO and 10 mL of an aqueous mixture containing acetone, water, isopropyl alcohol, DMSO, Atplus 411F crop oil concentrate, and Triton X-155 surfactant in a 48.5:39:10:1.5:1.0:0.02 v/v ratio to obtain ½×, ¼×, ⅛× and 1/16× rates of the high rate. Compound requirements are based upon a 12 mL application volume at a rate of 187 liters per hectare (L/ha). Formulated compounds were applied to the plant material with an overhead Mandel track sprayer equipped with 8002E nozzles calibrated to deliver 187 L/ha over an application area of 0.503 square meters at a spray height of 18 inches (43 cm) above the average plant canopy height. Control plants were sprayed in the same manner with the solvent blank.
(§3) The treated plants and control plants were placed in a greenhouse as described above and watered by subirrigation to prevent wash-off of the test compounds. After 14 d, the condition of the test plants as compared with that of the untreated plants was determined visually and scored on a scale of 0 to 100 percent where 0 corresponds to no injury and 100 corresponds to complete kill.

[2] = tested on: Key Broadleaf Weed and Crop Species; assay: Post-emergent Test II herbicidal activity (Table 5); assay type: in vivo; conditions: post-emergence, 336 h, 14 days after application; for pest or weed control at 70 g/ha: application rate 70 g ai/ha
Method: as §1, §2, §3

[3] = Triticum aestivum, TRZSS (wheat), read-out: Visual Growth Reduction (%) 14 Days After Application, TRZSS
[4] = DIGSA: crabgrass (Digitaria sanguinalis), read-out: Visual Growth Reduction (%) 14 Days After Application, DIGSA
[5] = ECHCG: barnyardgrass (Echinochloa crus-galli), read-out: Visual Growth Reduction (%) 14 Days After Application, ECHCG
[6] = ORYSA: rice (Oryza sativa), read-out: Visual Growth Reduction (%) 14 Days After Application, ORYSA
[7] = SETFA: giant foxtail (Setaria faberi), read-out: Visual Growth Reduction (%) 14 Days After Application, SETFA
[8] = SORVU: grain sorghum (Sorghum vulgare), read-out: Visual Growth Reduction (%) 14 Days After Application, SORVU
[9] = ZEAMX: maize, corn (Zea mays), read-out: Visual Growth Reduction (%) 14 Days After Application, ZEAMX
[10] = ABUTH: velvetleaf (Abutilon theophrasti), read-out: Visual Growth Reduction (%) 14 Days After Application, ABUTH
[11] = AMARE: redroot pigweed (Amaranthus retroflexus), read-out: Visual Growth Reduction (%) 14 Days After Application, AMARE
[12] = BRSNN: oilseed-rape, canola (Brassica napus), read-out: Visual Growth Reduction (%) 14 Days After Application, BRSNN
[13] = CHEAL: lambsquarters (Chenopodium album), read-out: Visual Growth Reduction (%) 14 Days After Application, CHEAL
[14] = EPHHL: wild poinsettia (Euphorbia heterophylla), read-out: Visual Growth Reduction (%) 14 Days After Application, EPHHL
[15] = HELAN: sunflower (Helianthus annuus), read-out: Visual Growth Reduction (%) 14 Days After Application, HELAN
[16] = VIOTR: wild pansy (Viola tricolor), read-out: Visual Growth Reduction (%) 14 Days After Application, VIOTR

Row | SMILES | pest or weed control at 70 g/ha [1, 3] [%] | pest or weed control at 140 g/ha [1, 3] [%] | pest or weed control at 70 g/ha [1, 4] [%] | pest or weed control at 140 g/ha [1, 4] [%] | pest or weed control at 70 g/ha [1, 5] [%] | pest or weed control at 140 g/ha [1, 5] [%] | pest or weed control at 70 g/ha [1, 6] [%] | pest or weed control at 140 g/ha [1, 6] [%] | pest or weed control at 140 g/ha [1, 7] [%] | pest or weed control at 70 g/ha [1, 8] [%] | pest or weed control at 140 g/ha [1, 8] [%] | pest or weed control at 70 g/ha [1, 9] [%] | pest or weed control at 140 g/ha [1, 9] [%] | pest or weed control at 70 g/ha [2, 10] [%] | pest or weed control at 70 g/ha [2, 11] [%] | pest or weed control at 70 g/ha [2, 12] [%] | pest or weed control at 70 g/ha [2, 13] [%] | pest or weed control at 70 g/ha [2, 14] [%] | pest or weed control at 70 g/ha [2, 15] [%] | pest or weed control at 70 g/ha [2, 16] [%] | further results
1 | COC(=O)c1nc(-c2ccc(C(F)(F)F)c(F)c2)nc(N)c1OC [Compound 26, methyl 6-amino-2-(3-fluoro-4-(trifluoromethyl)phenyl)-5-methoxypyrimidine-4-carboxylate] | 45 to 59 | 45 to 59 | 0 to 29 | 0 to 29 | 0 to 29 | 0 to 29 | 0 to 29 | 0 to 29 | 0 to 29 | 0 to 29 | 0 to 29 | 0 to 29 | 45 to 59 | 85 to 94 | 60 to 74 | 30 to 44 | 0 to 29 | 95 to 100 | 85 to 94 | 0 to 29 | pest or weed control at 70 g/ha [1, 7]: 0 to 29%; pest or weed control at 140 g/ha ([2]; ABUTH: velvetleaf (Abutilon theophrasti), application rate 140 g ai/ha, read-out: Visual Growth Reduction (%) 14 Days After Application, ABUTH): 85 to 94%; pest or weed control at 140 g/ha ([2]; AMARE: redroot pigweed (Amaranthus retroflexus), application rate 140 g ai/ha, read-out: Visual Growth Reduction (%) 14 Days After Application, AMARE): 75 to 84%; pest or weed control at 140 g/ha ([2]; BRSNN: oilseed-rape, canola (Brassica napus), application rate 140 g ai/ha, read-out: Visual Growth Reduction (%) 14 Days After Application, BRSNN): 30 to 44%; pest or weed control at 140 g/ha ([2]; CHEAL: lambsquarters (Chenopodium album), application rate 140 g ai/ha, read-out: Visual Growth Reduction (%) 14 Days After Application, CHEAL): 0 to 29%; pest or weed control at 140 g/ha ([2]; EPHHL: wild poinsettia (Euphorbia heterophylla), application rate 140 g ai/ha, read-out: Visual Growth Reduction (%) 14 Days After Application, EPHHL): 95 to 100%; pest or weed control at 140 g/ha ([2]; HELAN: sunflower (Helianthus annuus), application rate 140 g ai/ha, read-out: Visual Growth Reduction (%) 14 Days After Application, HELAN): 85 to 94%; pest or weed control at 140 g/ha ([2]; VIOTR: wild pansy (Viola tricolor), application rate 140 g ai/ha, read-out: Visual Growth Reduction (%) 14 Days After Application, VIOTR): 0 to 29%
2 | COc1c(N)nc(-c2ccc(C(F)(F)F)c(F)c2)nc1C(=O)O [Compound 63] | 60 to 74 | 60 to 74 | 60 to 74 | 60 to 74 | 75 to 84 | 95 to 100 | 0 to 29 | 0 to 29 | 95 to 100 | 0 to 29 | 30 to 44 | 60 to 74 | 60 to 74 | 60 to 74 | 60 to 74 | 75 to 84 | 85 to 94 | 95 to 100 | 85 to 94 | 75 to 84 | pest or weed control at 140 g/ha ([2]; ABUTH: velvetleaf (Abutilon theophrasti), 140 g ai/ha, post-emergent, read-out: Visual Growth Reduction (%) 14 Days After Application ABUTH): 85 to 94%; pest or weed control at 140 g/ha ([2]; AMARE: redroot pigweed (Amaranthus retroflexus), 140 g ai/ha, post-emergent, read-out: Visual Growth Reduction (%) 14 Days After Application AMARE): 75 to 84%; pest or weed control at 140 g/ha ([2]; BRSNN: oilseed-rape, canola (Brassica napus), 140 g ai/ha, post-emergent, read-out: Visual Growth Reduction (%) 14 Days After Application BRSNN): 85 to 94%; pest or weed control at 140 g/ha ([2]; CHEAL: lambsquarters (Chenopodium album), 140 g ai/ha, post-emergent, read-out: Visual Growth Reduction (%) 14 Days After Application CHEAL): 95 to 100%; pest or weed control at 140 g/ha ([2]; EPHHL: wild poinsettia (Euphorbia heterophylla), 140 g ai/ha, post-emergent, read-out: Visual Growth Reduction (%) 14 Days After Application EPHHL): 95 to 100%; pest or weed control at 140 g/ha ([2]; HELAN: sunflower (Helianthus annuus), 140 g ai/ha, post-emergent, read-out: Visual Growth Reduction (%) 14 Days After Application HELAN): 85 to 94%; pest or weed control at 140 g/ha ([2]; VIOTR: wild pansy (Viola tricolor), 140 g ai/ha, post-emergent, read-out: Visual Growth Reduction (%) 14 Days After Application VIOTR): 95 to 100%
